Here are results for two molecules from US7098237B1, “Remedies for ischemia reperfusion injury” (Shionogi & Co., Ltd., priority 1998, dated 2006).

Assay [1] relates to Total Hepatic Vascular Exclusion Model (liver ischemia reperfusion). The assay can be described thus: Blood flow in the hepatic tissue by administration after ischemia (laser Doppler method). The class given is in vivo, Beagle dogs. The following applies: 0.2 mg/kg/hr continuous i.v. for one hour from 20 minutes before reperfusion to 40 minutes after reperfusion. As to the method:
(§1) The blood flow in the hepatic tissue was measured using a laser Doppler method.
(§2) The experiments were carried out by the same method as in Example 1. A dosage of 0.2 mg/kg/hr of the compound (1) was administered by continuous intravenous injection through the peripheral vein for one hour from 20 minutes before blood reperfusion to 40 minutes after the reperfusion.
The blood flow in the hepatic tissue was measured by the same method as in Examples 2 and 3.

For assay [2] the test system is unchanged. The assay can be described thus: Blood flow in the hepatic tissue by administration before ischemia (laser Doppler method). In kind it is in vivo, Beagle dogs. The following applies: 0.2 mg/kg/hr continuous i.v. for one hour before ischemia.
Source text: (§3) Beagle dogs (female, 10 to 12 kg) are used for experimental animals. Under the control of general anesthesia by inserting a tube into the trachea, a bypass was formed between the portal vein, femoral vein and external jugular vein. […] An auxiliary circulation is applied during this two hour's operation. Ischemia is continued for two hours, and reperfusion of the blood is resumed by releasing the clump. Various physiological changes are confirmed under laparotomy until three hours after reperfusion and thereafter abdomen is sutured (the method for maintaining anesthesia during this period follows the existing protocol, and fluctuation of the blood pressure and the like are not corrected by different anesthetic methods). The blood is collected from the peripheral artery to measure AST, ALT and LDH as indexes of the hepatic functions. Survival at two weeks after the surgery is confirmed.
A dosage of 0.2 mg/kg/hr of the compound (1) was administered by continuous intravenous injection through the peripheral vein during the period of one hour from before ischemia to the occurrence of ischemia.
as §1

Assay [3] shares this test system. Put plainly: Hepatic function related factors (AST, ALT, LDH) by administration after ischemia. In kind it is in vivo, Beagle dogs. The following applies: 0.2 mg/kg/hr continuous i.v. for one hour from 20 minutes before reperfusion to 40 minutes after reperfusion.
Source text: as §3, §2

The test system is the same in assay [4]. The assay can be described thus: Hepatic function related factors (AST, ALT, LDH) by administration before ischemia, Total Hepatic Vascular Exclusion Model. The class given is in vivo, Beagle dogs. The following applies: 0.2 mg/kg/hr continuous i.v. for one hour before ischemia; 2 h ischemia then reperfusion; peripheral artery blood.
Source text: as §3, with “is” for “was”, “methods).” for “methods). The blood is collected from the peripheral artery to measure AST, ALT and LDH as indexes of the hepatic functions.”
The test compound is administered before and after warm ischemia. The compound is administered by intravenous injection.
Various factors related to the hepatic function and blood flow of hepatic tissues were measured by sampling over time from the peripheral artery and hepatic vein.
as §3
The experimental group is divided into two groups with and without administration of the compound (1). […]

The subject of assay [5] is lung injury after small intestine ischemia reperfusion. The following applies: Am. J. Physiol., 268: G397, 1995; cited from earlier work.

With `CCc1c(C(=O)C(N)=O)c2c(OCC(=O)[O-])cc(C)cc2n1Cc1ccccc1.[Na+]` [compound (1)], the “blood flow after reperfusion compared with the control group (FIG. 8)” value in assay [1] is on record as “significantly increased”. The “blood flow in the liver after reperfusion compared with the control group (FIG. 4)” value in assay [2] is recorded as “significantly increased”. Also, in assay [3], the “ALT value compared with the control group (FIG. 6)” value is given as “significantly suppressed”, the “AST value compared with the control group (FIG. 5)” value was “significantly suppressed” and the “LDH value compared with the control group (FIG. 7)” value was “significantly suppressed”. In assay [4], the “ALT value compared with the control group (FIG. 2)” value was “significantly suppressed”, the “AST value compared with the control group (FIG. 1)” value is reported as “significantly suppressed” and the “LDH value compared with the control group (FIG. 3)” value is recorded as “significantly suppressed”.
For `CCN(CC)CCCC(C)Nc1c2ccc(Cl)cc2nc2ccc(OC)cc12` (stereo not drawn) [quinacrine], the “occurrence of lung injury accompanied by reperfusion of the small intestine” value in assay [5] was “can be prevented”.
